Experimental findings from US10385034B2, “Flavonoid IL-17A inhibitors” (THE CLEVELAND CLINIC FOUNDATION, priority 2014, dated 2019) are described below.

The subject of test [1] is Th17-mediated EAE. The test is described as follows: Adoptive transfer of EAE by Th17. In kind it is in vivo, mouse. On the procedure: Adoptive transfer of EAE by Th17. To prepare MOG-specific polarized Th17 cell populations, drain lymph node cells were prepared from 10-week WT C57BL/6 female mice immunized with MOG 35-55 at day 10 postimmunization. Cells were cultured for 5 days with MOG 35-55 at a concentration of […] under Th17 cell (20 ng/ml IL-23) polarizing condition. For induction of Th17-mediated EAE, 10-week WT C57BL/6J female mice were injected i.p. with 3.0×10^7 polarized MOG 35-55-specific Th17 cells/mouse with or without A18 (30 μg per mouse) 4 h after 500 Rad sublethal irradiation. A18 (30 μg per mouse) was continuously administered i.p. to the treated mice every other day after Th17 injection. At the peak of disease, the mice were sacrificed and perfused with PBS. The spinal cords were fixed in 10% formalin for staining with H&E. The Brains were removed for isolation of infiltrating cells.
Isolation and analysis of inflammatory cells from brain. Brains were homogenized in ice-cold tissue grinders and filtered through a […] cell strainer, and the cells were collected by centrifugation at 400 g for 5 min at 4° C. Cells were resuspended in 10 ml of 30% Percoll (Amersham Bioscience) and centrifuge onto a 70% Percoll cushion in 15 ml tubes at 800 g for 30 min. Cells at the 30%-70% interface were collected and were subjected to flow cytometry. Fluorescence-conjugated CD4, CD8, CD45, Ly6G1 antibodies and isotype controls were purchased from BD Biosciences. F4/80 was obtained from Serotech.
(§1) Real-time PCR. Total RNA was extracted from spinal cords and cultured astrocytes with TRIzol (Invitrogen) according to the manufacturer's instructions. All gene expression results are expressed as arbitrary units relative to expression of the gene encoding beta-actin.

Test [2] concerns the target T1, IL-17RA ECD (Homo sapiens, UniProt Q96F46).
T1 construct: using purified the extracellular domain (ECD) of human IL-17RA
Kind of test: Surface plasmon resonance (Biacore) binding to immobilized IL-17RA. Particulars: SPR, IL-17RA immobilized on CM5 chip. On the procedure: Surface plasmon resonance (SPR). Binding of A18 to IL-17RA was conducted on Biacore T100 instrument. Purified IL-17RA was immobilized on CM5 sensor chip using amine coupling kit (GE healthcare). A18 of different concentrations were flown over the chip in PBSPP+ buffer (20 mM Phosphate, 2.7 mM KCl, 137 mM NaCl and 0.05% P20, pH 7.4). The chip was regenerated with 2M GnHCl. Binding KD was determined by Biaevaluation software.

For test [3], the target named is T2, recombinant human IL-17RA ectodomain (Homo sapiens, UniProt Q96F46).
T2 construct: The recombinant human IL-17RA ectodomain was expressed in baculovirus-infected Sf-9 cells; made in house; host or cells: baculovirus-infected Sf-9 cells
T2 sequence (Q96F46 33-320 limits assumed): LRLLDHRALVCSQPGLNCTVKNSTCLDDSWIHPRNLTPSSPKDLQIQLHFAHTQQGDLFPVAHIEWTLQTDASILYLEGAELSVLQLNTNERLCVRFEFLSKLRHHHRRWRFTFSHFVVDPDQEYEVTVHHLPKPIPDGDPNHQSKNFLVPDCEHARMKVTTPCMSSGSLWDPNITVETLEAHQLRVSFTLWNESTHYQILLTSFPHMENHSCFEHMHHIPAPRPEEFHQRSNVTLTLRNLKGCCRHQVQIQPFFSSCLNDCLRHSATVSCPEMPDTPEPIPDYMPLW
The test is described as follows: Fluorescence binding measurement (fluorescence quenching). As to conditions: fluorescence-based method, IL-17RA in solution, 1 uM. Here is the method: Fluorescence binding measurement. The recombinant human IL-17RA ectodomain was expressed in baculovirus-infected Sf-9 cells and purified as described previously. Liu et al., Nat Commun 4, 1888 (2013). The compound A18 or A0 was obtained from NCI. The purified IL-17RA protein (final concentration at 1 uM) was mixed with various concentrations of compound A0 in the solution consisting of 20 mM Tris, pH 7.5, 150 mM NaCl, and 5% DMSO in a 96-well black flat-bottom microplate (Greiner Bio-One). The reaction mixtures were incubated at room temperature at 120 rpm for 10 min, and fluorescence intensity was measured on a 2300 EnSpire Multimode Plate Reader (PerkinElmer) with excitation (265 nm) and emission (336 nm) wavelengths for A18 or with excitation (240 nm) and emission (337 nm) wavelengths for A0. The fluorescence signal (relative fluorescence intensity) was obtained by subtracting the background fluorescence of buffer and compound A0, and plotted as a function of the concentration of compound A0. The fluorescence quenching was observed as a consequence of the protein-ligand interaction at dose-dependent concentrations of compound A0, and the binding constant of compound A0 to IL-17RA was estimated by one-site total binding fit model (GraphPad Prism).

The test system of test [4] is IL-17A-induced epidermal hyperplasia. The test is described as follows: Intradermal injection of IL-17A (skin epidermal hyperplasia). In kind it is in vivo, mouse. Here is the method: Intradermal injection of IL-17A. The ears of 8-week WT C57BL/6 female mice were injected intradermally with 20 μl PBS, either alone or containing 500 ng recombinant mouse IL-17A with or without A18 (30 μg per mouse). After 7 days after injection, the mice ears were fixed in 10% formalin in PBS and stained with hematoxylin and eosin (H&E). Epidermal thickness was quantified by Image J.
as §1

Test [5] relates to IL-17F-induced gene expression. Kind of test: IL-17F-induced gene expression in epithelial cells. In kind it is cell-based, human. As to conditions: data not shown.
The test system of test [6] is human mammary epithelial cells (HMEC). Kind of test: IL-17A-induced CXCL1 (Groα) production, ELISA. In kind it is cell-based. As to conditions: IL-17 100 ng/ml, 24 h. The source says:
Reagents, cell culture and mice. Purified proteins of human IL-17A, human IL-17E (IL-25), human IL-17RA-Fc (extracellular domain 1-322 AA fused with Fc region of human IgG1 at the C-terminus), human IL-17RB-Fc (extracellular domain 1-289 AA fused with Fc region of human IgG1 at the C-terminus), human horseradish peroxidase (HRP)-conjugated IgG Fc secondary antibody were purchased from Sino Biological Inc. Human and mouse IL-17A and mouse IL-23 used for cell culture and animal injection were purchased from R&D Systems. Human mammary epithelial cells were maintained in Medium 171 plus mammary epithelial growth supplement (MEGS) purchased from Invitrogen, which contain bovine pituitary extract (BPE) (0.4% v/v), recombinant human insulin-like growth factor-I (1 μg/ml), hydrocortisone (0.5 μg/ml) and human epidermal growth factor (3 ng/ml). A549 cells were maintained in RPMI supplemented with 10% FCS and 100 U/ml penicillin and 100 μg/ml streptomycin. All mice were obtained from Jackson laboratory.
ELISA. Groα and IL-17A levels were assayed by ELISA kits (R&D systems) according to the manufacturer's instruction.

Setting [7] is: A18 30 μg per mouse i.p. every other day.

Each structure is given as a SMILES string.

T1 sequence (Q96F46 33-320 limits assumed): as above

What is called Kd is a measure of binding affinity in units of concentration. With `Oc1cc(O)c2cc(O)c(-c3ccc(O)c(O)c3)[o+]c2c1.[Cl-]` [A18, 2-(3,4-Dihydroxyphenyl)-3,5,7-trihydroxy-1-benzopyrylium chloride], in test [1] (setting [7]), the EAE disease severity result is “attenuated”; the “Expression of IL-17-responsive inflammatory genes (CXCL1, IL6, GMCSF, Ccl20) in spinal cords” value is “greatly reduced”; the “Onset of EAE” value was “substantially delayed”. The “Infiltrated cells in spinal cords” value in test [1] (H&E staining) was “less infiltrated cells”. In test [1] (brain, flow cytometry), the “Infiltration of CD4+, CD8+ T cells and F4/80+ macrophages” value is given as “did not affect”; the “Recruitment of Ly6G+ neutrophils” value is on record as “substantially reduced”. For the same molecule, in test [2], the dissociation constant (Kd) came out at 225 nM. Moreover, in test [3], the dissociation constant (Kd) was roughly 5000 nM. Further, in test [4] (C57Bl/6 ears, IL-17A 500 ng with A18 30 μg per mouse intradermal, 6 consecutive days), the IL-17A-dependent epidermal hyperplasia entry was “greatly reduced”. In addition, in test [4] (RT-PCR), the “Levels of C-myc, Pled and Steap4 in IL-17A-treated ears” value is on record as “attenuated”. The IL-17F-induced gene expression entry in test [5] is listed as “able to block”. Also, the “IL-17A-mediated CXCL1 production” value in test [6] was “greatly inhibited”.
